Assay results from publication PMC5357792, “Identification of mangiferin as a potential Glucokinase activator by structure-based virtual ligand screening” (Scientific Reports, 2017).

What follows are molecules tested against T1, Glucokinase (GK) (Homo sapiens, UniProt P35557) (assay: microscale thermophoresis with labelled recombinant GK). Conditions: read-out: Dissociation constant with GK / Kd.
T1 construct: gene GCK; full-length human glucokinase (GenBank: BC001890.1), C-terminally hexa-histidine tagged
T1 sequence (P35557 1-465): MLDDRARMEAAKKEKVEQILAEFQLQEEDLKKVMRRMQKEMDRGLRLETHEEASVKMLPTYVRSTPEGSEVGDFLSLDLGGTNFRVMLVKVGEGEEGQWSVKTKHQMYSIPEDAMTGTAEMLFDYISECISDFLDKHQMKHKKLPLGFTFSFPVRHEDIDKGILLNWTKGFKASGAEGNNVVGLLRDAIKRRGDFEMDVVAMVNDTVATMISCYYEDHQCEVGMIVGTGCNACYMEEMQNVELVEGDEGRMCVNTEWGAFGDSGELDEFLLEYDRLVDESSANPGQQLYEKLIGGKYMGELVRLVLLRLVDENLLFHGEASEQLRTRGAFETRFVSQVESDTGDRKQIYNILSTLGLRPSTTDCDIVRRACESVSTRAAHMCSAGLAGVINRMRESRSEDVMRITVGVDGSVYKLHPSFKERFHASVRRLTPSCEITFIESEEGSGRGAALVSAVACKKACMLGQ
Format: binding
`O=C(Nc1ncc(SCCN2CCCC2)s1)[C@]1(c2ccc(S(=O)(=O)C3CC3)cc2)C[C@H]1C1CCCCC1` [LY2608204] was tested, and the Kd was 600 ± 36.1 µM.

Each molecule was assayed against T1, Glucokinase (GK) (assay: biochemical). Conditions: not given.
Design: G6PDH-coupled spectrophotometric glucokinase activity, NADPH absorbance at 340 nm, 10 mM glucose, 37 °C
Experimental: The in vitro efficacy of twelve compounds was assessed in two separate steps: a SC50 assay to evaluate the potency of each compound at a unified compound concentration of 50 μM. Then, we seek to obtain the values of EC50 and kinetic parameters Ka, Vmax of promising compounds, according to a reported method with minor modifications. Briefly, Twelve compounds unified in the same concentration of 50 μM were assayed in a 96-well plate with a final reaction volume of 100 μl. The reaction mixture consisted of 25 mM Hepes (pH 7.5), 10 mM glucose, 1 mM ATP, 4 U/ml G6PDH (Sigma-Aldrich Co. LLC., St. Louis, MO, USA), 1 mM NADP, 2.5 mM MgCl, 50 mM KCl, 2 mM DTT, […] recombinant human glucokinase and test compounds. The whole reaction mixtures were kept under 37 °C for 20 minutes. The increase in the rate of absorbance of NADPH generated in the reactions was monitored kinetically at 340 nm. The values were calculated by comparing with untreated GK. This term is called the efficacy of stimulatory concentration (SC50). Then, the EC50 of promising candidates were determined in the presence of various fixed concentrations of compound 7 (2–300 μM). Values were calculated by fitting enzymatic rates to the Hill equation by using GraphPad Prism 5.01. In order to further investigate the activation effect of the twelve compounds on GK enzymatic activity, the recombinant GK protein had been successfully obtained by genetic engineering method. Evaluation of the twelve hits on enzymatic activity was assessed spectrometrically by a coupled reaction with glucose-6-phosphate dehydrogenase. […] The activation percentage was the GK enzyme activity in each group compared to that of the blank control group. Each compound was assayed triply. The value presents in a column as the mean ± SD (n = 3). *P < 0.05, **P < 0.01, compared to the blank control group.
`O=c1c2cc(O)c(O)cc2oc2cc(O)c([C@@H]3O[C@H](CO)[C@@H](O)[C@H](O)[C@H]3O)c(O)c12` [compound 7, mangiferin] gave an EC50 of 156 µM.

Same assay, conditions: untreated GK = 100%; read-out: % of control remaining
For `O=c1c2cc(O)c(O)cc2oc2cc(O)c([C@@H]3O[C@H](CO)[C@@H](O)[C@H](O)[C@H]3O)c(O)c12` [compound 7, mangiferin], the remaining activity at 50 µM was 126 ± 2.83%.
With `Cc1sc2ncnc(SCC(=O)Nc3c[nH]ccc3=O)c2c1C` [compound 5, 5] the remaining activity at 50 µM was 87.6 ± 5.67%.
`Cn1ccc(NC(=O)N(Cc2ccccc2)CC(O)c2ccco2)n1` (centres unmarked) [compound 9, 9] gave a remaining activity at 50 µM of 82.4 ± 6.72%.
`CC(O)CNc1nc2ccccc2n1Cc1nc(N)nc(N(C)C)n1` (centres unmarked) [compound 8, 8] was tested, and the remaining activity at 50 µM was 92 ± 0.96%.
In the case of `Oc1ccc(Nc2ncnc3sccc23)cc1CN1CCOCC1` [compound 4, 4], the remaining activity at 50 µM is reported as 37.8 ± 12%.
In the case of `NC(=O)c1coc(-c2csc(NC(=O)c3ccc(Cl)cc3)n2)c1` [compound 2, 2], the remaining activity at 50 µM is reported as 86.5 ± 5.71%.
In the case of `COc1ccccc1C(=O)Nc1cccc(NC(=O)c2ncc[nH]2)c1` [compound 11, 11], the remaining activity at 50 µM is reported as 75.9 ± 6.72%.
`O=C(Nc1nc(-c2c[nH]c3ccccc23)cs1)c1cnccn1` [compound 1, 1] gave a remaining activity at 50 µM of 86.1 ± 5.68%.
In the case of `O=C1NCC(c2ccc(Cl)cc2)Cc2[nH]c(-c3ncc[nH]3)nc21` (centres unmarked) [compound 10, 10], the remaining activity at 50 µM is reported as 94.3 ± 1.49%.
Molecule `O=C(NCC(c1cccs1)c1c[nH]c2ccccc12)c1ccccn1` (centres unmarked) [compound 6, 6] has a remaining activity at 50 µM of 90 ± 3.88%.
`Cc1nc(S)sc1CC(=O)Nc1c[nH]ccc1=O` [compound 3, 3] gave a remaining activity at 50 µM of 46.7 ± 1.21%.

These molecules were tested against T1, Glucokinase (GK) (assay: microscale thermophoresis with labelled recombinant GK; also coupled G6PDH enzyme activation assay (EC50 ca. […])). Conditions: read-out: Dissociation constant with GK / Kd.
Format: binding
With `O=c1c2cc(O)c(O)cc2oc2cc(O)c([C@@H]3O[C@H](CO)[C@@H](O)[C@H](O)[C@H]3O)c(O)c12` [compound 7, mangiferin] the Kd was 472 ± 20.5 µM.
